These results are taken from patent US20250025443A1, “COMPOUNDS AND METHODS FOR TREATING CORONA VIRUSES” (CLEAR CREEK BIO, INC., priority 2021, published 2025).

The experiment deals with SARS-CoV-2 Papain-Like Protease (PLpro) (Severe acute respiratory syndrome coronavirus 2 (2019-nCoV) (SARS-CoV-2), UniProt P0DTD1). The experiment in a line: biochemical. Particulars: read-out: PLpro IC50.
Setting [1] is: SARS-CoV-2 PLpro enzymatic fluorescence assay.
Where [2] appears, read: PLpro enzymatic fluorescence assay, class symbols.

Each structure is given as a SMILES string. Read-outs that look alike come from different tables or passages of the source. Bounds are passed on as bounds.

One may read the IC50 as the concentration at which inhibition is half-maximal. For the compound `Cc1ccc(COC2CN(C)C2)cc1C(=O)NC1(c2cccc3ccccc23)CC1` [Compound 447, 2-Methyl-5-(((1-methylazetidin-3-yl)oxy)methyl)-N-(1-(naphthalen-1-yl)cyclopropyl)benzamide], under setting [1], the IC50 is 100 to 1000 nM.
Turning to `C#CC(NC(=O)c1cc(OCC2CCN2C)ccc1C)c1cccc2ccccc12` (stereo not drawn) [Compound 448, 2-Methyl-5-((1-methylazetidin-2-yl)methoxy)-N-(1-(naphthalen-1-yl)prop-2-yn-1-yl)benzamide], the IC50 under setting [1] lay within 1000 to 5000 nM.
With `Cc1ccc(CCC2CCN2)cc1C(=O)NC1(c2cccc3ccccc23)CC1` (stereo not drawn) [Compound 449, 5-(2-(Azetidin-2-yl)ethyl)-2-methyl-N-(1-(naphthalen-1-yl)cyclopropyl)benzamide], the IC50 under setting [1] was less than 100 nM.
The same measure, in the same setting: for `COc1cc(C2(NC(=O)c3cc(OCC4CCN4C)ccc3C)COC2)c2ccccc2c1` (stereo not drawn) [Compound 450, N-(3-(3-Methoxynaphthalen-1-yl)oxetan-3-yl)-2-methyl-5-((1-methylazetidin-2-yl)methoxy)benzamide] the value was less than 100 nM.
Regarding `CNCCOc1ccc(C)c(C(=O)NC2(c3cccc4ccccc34)COC2)c1` [Compound 451, 2-Methyl-5-(2-(methylamino)ethoxy)-N-(3-(naphthalen-1-yl)oxetan-3-yl)benzamide], the IC50 under setting [1] was less than 100 nM.
For `Cc1ccc(CCC(N)=O)cc1C(=O)NC1(c2cccc3ccccc23)CC1` [Compound 452, 5-(3-Amino-3-oxopropyl)-2-methyl-N-(1-(naphthalen-1-yl)cyclopropyl)benzamide], under setting [1], the IC50 was 100 to 1000 nM.
Consider `CNCCOc1ccc(C)c(C(=O)NC2(c3cccc4ccccc34)CNC2)c1` [Compound 453, 2-Methyl-5-(2-(methylamino)ethoxy)-N-(3-(naphthalen-1-yl)azetidin-3-yl)benzamide], for which the IC50 under setting [1] was greater than 5000 nM.
Take `Cc1ccc(OCC2CCN2C)cc1C(=O)NC1(c2nccc3ccccc23)CC1` (stereo not drawn) [Compound 454, N-(1-(Isoquinolin-1-yl)cyclopropyl)-2-methyl-5-((1-methylazetidin-2-yl)methoxy)benzamide]: the IC50 under setting [2] lay within 100 to 1000 nM.
Turning to `Cc1ccc(CCC2CCN2C)cc1C(=O)NC1(c2cccc3ccccc23)CC1` (stereo not drawn) [Compound 455, 2-Methyl-5-(2-(1-methylazetidin-2-yl)ethyl)-N-(1-(naphthalen-1-yl)cyclopropyl)benzamide], under setting [1], the IC50 is less than 100 nM.
Regarding `COc1cc2c(C3(NC(=O)c4cc(OCC5CCN5C)ccc4C)CC3)cccc2cn1` (stereo not drawn) [Compound 456, N-(1-(3-Methoxyisoquinolin-5-yl)cyclopropyl)-2-methyl-5-((1-methylazetidin-2-yl)methoxy)benzamide], the IC50 under setting [2] was less than 100 nM.
Consider `Cc1ccc(OCC2CCN2C)cc1C(=O)NC1(c2c(C(C)C)ccc3ccccc23)CC1` (stereo not drawn) [Compound 457, N-(1-(2-Isopropylnaphthalen-1-yl)cyclopropyl)-2-methyl-5-((1-methylazetidin-2-yl)methoxy)benzamide], for which the IC50 under setting [1] is 100 to 1000 nM.
With `Cc1ccc(OCC2CCN2C)cc1C(=O)NC1(c2c(C)ccc3ccccc23)CC1` (stereo not drawn) [Compound 458, 2-Methyl-5-((1-methylazetidin-2-yl)methoxy)-N-(1-(2-methylnaphthalen-1-yl)cyclopropyl)benzamide], under setting [2], the IC50 was less than 100 nM.
As to `C#CC(NC(=O)c1cc(N)ccc1C)c1cccc2ccccc12` (stereo not drawn) [Compound 459, 5-Amino-2-methyl-N-(1-(naphthalen-1-yl)prop-2-yn-1-yl)benzamide], under setting [1], the IC50 is greater than 5000 nM.
Still for that read-out and setting: the value for `Cc1ccc(OCC2CCN2C)cc1C(=O)NC1(c2cc(Br)cc3ccccc23)CC1` (stereo not drawn) [Compound 461, N-(1-(3-Bromonaphthalen-1-yl)cyclopropyl)-2-methyl-5-((1-methylazetidin-2-yl)methoxy)benzamide] was less than 100 nM; that for `COc1cc(C2(NC(=O)c3cc(OC[C@@H]4CCCN4)ccc3C)CC2)c2cccnc2c1` [Compound 462, (S)-N-(1-(7-Methoxyquinolin-5-yl)cyclopropyl)-2-methyl-5-(pyrrolidin-2-ylmethoxy)benzamide] was less than 100 nM; that for `Cc1ccc(N2CCC(N)CC2)cc1C(=O)NC1(c2cccc3ccccc23)CC1` [Compound 463, 5-(4-Aminopiperidin-1-yl)-2-methyl-N-(1-(naphthalen-1-yl)cyclopropyl)benzamide] was 100 to 1000 nM.
For the compound `Cc1ccc(N2CC(N)C2)cc1C(=O)NC1(c2cccc3ccccc23)CC1` [Compound 464, 5-(3-Aminoazetidin-1-yl)-2-methyl-N-(1-(naphthalen-1-yl)cyclopropyl)benzamide], under setting [2], the IC50 was less than 100 nM.
Take `Cc1ccc(OCC2CCN2C)cc1C(=O)NC1(c2cccc3ccc(C(=O)O)cc23)CC1` (stereo not drawn) [Compound 465, 8-(1-(2-Methyl-5-((1-methylazetidin-2-yl)methoxy)benzamido)cyclopropyl)-2-naphthoic acid]: the IC50 under setting [1] was in the range of 1000 to 5000 nM.
Regarding `COc1cc(C2(NC(=O)c3cc(OCC4CCN4C)ccc3C)CC2)c2ccc(F)cc2n1` (stereo not drawn) [Compound 467, N-(1-(7-Fluoro-2-methoxyquinolin-4-yl)cyclopropyl)-2-methyl-5-((1-methylazetidin-2-yl)methoxy)benzamide], under setting [1], the IC50 is less than 100 nM.
For the compound `Cc1ccc(OCC2CCN2C)cc1C(=O)NC1(c2cc(-c3cccs3)cc3ccccc23)CC1` (stereo not drawn) [Compound 468, 2-Methyl-5-((1-methylazetidin-2-yl)methoxy)-N-(1-(3-(thiophen-2-yl)naphthalen-1-yl)cyclopropyl)benzamide], under setting [1], the IC50 was less than 100 nM.
Same read-out and setting: the value for `Cc1ccc(OCC(C)N)cc1C(=O)NC1(c2cc(-c3ccccc3)cc3ccccc23)CC1` (stereo not drawn) [Compound 470, 5-(2-Aminopropoxy)-2-methyl-N-(1-(3-phenylnaphthalen-1-yl)cyclopropyl)benzamide] was less than 100 nM; that for `CCS(=O)(=O)c1cc(C2(NC(=O)c3cc(OCCN(C)C)ccc3C)CC2)c2ccccc2c1` [Compound 471, 5-(2-(Dimethylamino)ethoxy)-N-(1-(3-(ethylsulfonyl)naphthalen-1-yl)cyclopropyl)-2-methylbenzamide] was 100 to 1000 nM.
For `Cc1ccc(CCCN)cc1C(=O)NC1(c2cccc3ccccc23)CC1` [Compound 472, 5-(3-Aminopropyl)-2-methyl-N-(1-(naphthalen-1-yl)cyclopropyl)benzamide], under setting [1], the IC50 is less than 100 nM.
For the compound `Cc1ccc(OCC2CCN2C)cc1C(=O)NC1(c2ccnc3ccccc23)CC1` (stereo not drawn) [Compound 473, 2-Methyl-5-((1-methylazetidin-2-yl)methoxy)-N-(1-(quinolin-4-yl)cyclopropyl)benzamide], the IC50 under setting [2] is less than 100 nM.
As for `CCCOc1cc(C2(NC(=O)c3cc(OCC4CCN4C)ccc3C)CC2)c2ccccc2c1` (stereo not drawn) [Compound 474, 2-Methyl-5-((1-methylazetidin-2-yl)methoxy)-N-(1-(3-propoxynaphthalen-1-yl)cyclopropyl)benzamide], the IC50 under setting [1] is less than 100 nM.
The same measure, in the same setting: the value for `Cc1ccc(OCC2CCN2C)cc1C(=O)NC1(c2cc(-c3ccccc3)cc3ccccc23)CC1` (stereo not drawn) [Compound 475, 2-Methyl-5-((1-methylazetidin-2-yl)methoxy)-N-(1-(3-phenylnaphthalen-1-yl)cyclopropyl)benzamide] was less than 100 nM.
For `Cc1ccc(OCC2CCN2C)cc1C(=O)NC1(c2cc(OC(C)C)cc3ccccc23)CC1` (stereo not drawn) [Compound 476, N-(1-(3-Isopropoxynaphthalen-1-yl)cyclopropyl)-2-methyl-5-((1-methylazetidin-2-yl)methoxy)benzamide], under setting [2], the IC50 is less than 100 nM.
With `Cc1ccc(OCC2CCN2C)cc1C(=O)NC1(c2cccc3ccc(O)cc23)CC1` (stereo not drawn) [Compound 477, N-(1-(7-Hydroxynaphthalen-1-yl)cyclopropyl)-2-methyl-5-((1-methylazetidin-2-yl)methoxy)benzamide], under setting [1], the IC50 was less than 100 nM.
`CCOc1cc(C2(NC(=O)c3cc(OCC4CCN4C)ccc3C)CC2)c2ccccc2c1` (stereo not drawn) [Compound 478, N-(1-(3-Ethoxynaphthalen-1-yl)cyclopropyl)-2-methyl-5-((1-methylazetidin-2-yl)methoxy)benzamide]: the IC50 under setting [2] was less than 100 nM.
Regarding `Cc1ccc(-c2cc(C3(NC(=O)c4cc(OCC(C)N)ccc4C)CC3)c3ccccc3c2)s1` (stereo not drawn) [Compound 479, 5-(2-Aminopropoxy)-2-methyl-N-(1-(3-(5-methylthiophen-2-yl)naphthalen-1-yl)cyclopropyl)benzamide], the IC50 under setting [2] is less than 100 nM.
Take `Cc1ccc(OCC(C)N)cc1C(=O)NC1(c2cc(-c3ccc(F)cc3)cc3ccccc23)CC1` (stereo not drawn) [Compound 480, 5-(2-Aminopropoxy)-N-(1-(3-(4-fluorophenyl)naphthalen-1-yl)cyclopropyl)-2-methylbenzamide]: the IC50 under setting [2] was less than 100 nM.
Consider `Cc1cc(C2(NC(=O)c3cc(OCC(C)N)ccc3C)CC2)c2ccccc2c1` (stereo not drawn) [Compound 481, 5-(2-Aminopropoxy)-2-methyl-N-(1-(3-methylnaphthalen-1-yl)cyclopropyl)benzamide], for which the IC50 under setting [1] is less than 100 nM.
For `Cc1ccc(OCC2CCN2C)cc1C(=O)NC1(c2cc(NC(=O)OC(C)(C)C)cc3ccccc23)CC1` (stereo not drawn) [Compound 482, tert-Butyl(4-(1-(2-methyl-5-((1-methylazetidin-2-yl)methoxy)benzamido)cyclopropyl)naphthalen-2-yl)carbamate], the half-maximal inhibitory concentration (IC50) under setting [1] is less than 100 nM.
Same read-out and setting: for `Cc1ccc(OCC2CCN2C)cc1C(=O)NC1(c2cccc3ccc(N)cc23)CC1` (stereo not drawn) [Compound 483, N-(1-(7-Aminonaphthalen-1-yl)cyclopropyl)-2-methyl-5-((1-methylazetidin-2-yl)methoxy)benzamide] the value was less than 100 nM; for `Cc1ccc(OCC2CCN2C)cc1C(=O)NC1(c2cc(C#N)cc3ccccc23)CC1` (stereo not drawn) [Compound 484, N-(1-(3-Cyanonaphthalen-1-yl)cyclopropyl)-2-methyl-5-((1-methylazetidin-2-yl)methoxy)benzamide], less than 100 nM.
Consider `Cc1ccc(N2CCC(N)C2)cc1C(=O)NC1(c2cccc3ccccc23)CC1` (stereo not drawn) [Compound 485, 5-(3-Aminopyrrolidin-1-yl)-2-methyl-N-(1-(naphthalen-1-yl)cyclopropyl)benzamide], for which, under setting [2], the IC50 was less than 100 nM.
